# Experimental data taken from PubChem BioAssay (NCI).
#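 Results reflect a 48-hour exposure of cells in 96-well plates to compound at five concentrations. TGI: concentration producing complete growth inhibition.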
# Assays:
# Assay in all cases: inhibition of tumour cell growth, NCI panel, 48 h
# SR leukemia = system: SR leukemia
# MALME-3M melanoma = system: MALME-3M melanoma
# UO-31 renal = system: UO-31 renal
# OVCAR-4 ovarian = system: OVCAR-4 ovarian
# TK-10 renal = system: TK-10 renal
# DLD-1 colon = system: DLD-1 colon
# SF-539 CNS = system: SF-539 CNS
# KM12 colon = system: KM12 colon
# SNB-78 CNS = system: SNB-78 CNS
# HL-60(TB) leukemia = system: HL-60(TB) leukemia
# CAKI-1 renal = system: CAKI-1 renal
# ACHN renal = system: ACHN renal
# IGROV1 ovarian = system: IGROV1 ovarian
# RPMI-8226 leukemia = system: RPMI-8226 leukemia
# SW-620 colon = system: SW-620 colon
# OVCAR-8 ovarian = system: OVCAR-8 ovarian
# HCT-15 colon = system: HCT-15 colon
# 786-0 renal = system: 786-0 renal
# HOP-92 NSCLC = system: HOP-92 NSCLC
# DMS 273 small cell lung = system: DMS 273 small cell lung
# M14 melanoma = system: M14 melanoma
# SNB-19 CNS = system: SNB-19 CNS
# U251 CNS = system: U251 CNS
# OVCAR-5 ovarian = system: OVCAR-5 ovarian
# SK-MEL-2 melanoma = system: SK-MEL-2 melanoma
# SK-OV-3 ovarian = system: SK-OV-3 ovarian
# NCI-H23 lung = system: NCI-H23 lung
# SK-MEL-5 melanoma = system: SK-MEL-5 melanoma
# MOLT-4 leukemia = system: MOLT-4 leukemia
# SF-268 CNS = system: SF-268 CNS
# DMS 114 small cell lung = system: DMS 114 small cell lung
# A549 NSCLC = system: A549 NSCLC
# HCC-2998 colon = system: HCC-2998 colon
# LXFL 529 NSCLC = system: LXFL 529 NSCLC
# LOX IMVI melanoma = system: LOX IMVI melanoma
# SNB-75 CNS = system: SNB-75 CNS
# NCI-H522 lung = system: NCI-H522 lung
# SF-295 CNS = system: SF-295 CNS
# K-562 leukemia = system: K-562 leukemia
# HOP-62 NSCLC = system: HOP-62 NSCLC
# NCI-H226 lung = system: NCI-H226 lung
# HCT-116 colon = system: HCT-116 colon
# SK-MEL-28 melanoma = system: SK-MEL-28 melanoma
# UACC-62 melanoma = system: UACC-62 melanoma
# NCI-H460 lung = system: NCI-H460 lung
# M19-MEL melanoma = system: M19-MEL melanoma
# XF 498 CNS = system: XF 498 CNS
# RXF 393 renal = system: RXF 393 renal
# CCRF-CEM leukemia = system: CCRF-CEM leukemia
# SN12C renal = system: SN12C renal
# OVCAR-3 ovarian = system: OVCAR-3 ovarian
# EKVX NSCLC = system: EKVX NSCLC
# HT29 colon = system: HT29 colon
# KM20L2 colon = system: KM20L2 colon
# COLO 205 colon = system: COLO 205 colon
# A498 renal = system: A498 renal
# UACC-257 melanoma = system: UACC-257 melanoma
structure (smiles),measurement,setting,value
COc1ccc2c(c1)O[C@@H]1c3ccc(OC)cc3OC[C@H]21,TGI,SR leukemia,97.5 µM
same,TGI,MALME-3M melanoma,> 100 µM
same,TGI,UO-31 renal,77.6 µM
same,TGI,OVCAR-4 ovarian,> 100 µM
same,TGI,TK-10 renal,> 100 µM
same,TGI,DLD-1 colon,> 100 µM
same,TGI,SF-539 CNS,> 100 µM
same,TGI,KM12 colon,> 100 µM
same,TGI,SNB-78 CNS,> 100 µM
same,TGI,HL-60(TB) leukemia,> 100 µM
same,TGI,CAKI-1 renal,> 100 µM
same,TGI,ACHN renal,> 100 µM
same,TGI,IGROV1 ovarian,> 100 µM
same,TGI,RPMI-8226 leukemia,> 100 µM
same,TGI,SW-620 colon,> 100 µM
same,TGI,OVCAR-8 ovarian,> 100 µM
same,TGI,HCT-15 colon,> 100 µM
same,TGI,786-0 renal,72.1 µM
same,TGI,HOP-92 NSCLC,79.7 µM
same,TGI,DMS 273 small cell lung,> 100 µM
same,TGI,M14 melanoma,> 100 µM
same,TGI,SNB-19 CNS,> 100 µM
same,TGI,U251 CNS,> 100 µM
same,TGI,OVCAR-5 ovarian,> 100 µM
same,TGI,SK-MEL-2 melanoma,89.6 µM
same,TGI,SK-OV-3 ovarian,> 100 µM
same,TGI,NCI-H23 lung,> 100 µM
same,TGI,SK-MEL-5 melanoma,39.2 µM
same,TGI,MOLT-4 leukemia,50.3 µM
same,TGI,SF-268 CNS,> 100 µM
same,TGI,DMS 114 small cell lung,58.9 µM
same,TGI,A549 NSCLC,> 100 µM
same,TGI,HCC-2998 colon,> 100 µM
same,TGI,LXFL 529 NSCLC,> 100 µM
same,TGI,LOX IMVI melanoma,83.7 µM
same,TGI,SNB-75 CNS,51.4 µM
same,TGI,NCI-H522 lung,51.6 µM
same,TGI,SF-295 CNS,> 100 µM
same,TGI,K-562 leukemia,57.3 µM
same,TGI,HOP-62 NSCLC,> 100 µM
same,TGI,NCI-H226 lung,69.6 µM
same,TGI,HCT-116 colon,> 100 µM
same,TGI,SK-MEL-28 melanoma,> 100 µM
same,TGI,UACC-62 melanoma,> 100 µM
same,TGI,NCI-H460 lung,82 µM
same,TGI,M19-MEL melanoma,> 100 µM
same,TGI,XF 498 CNS,> 100 µM
same,TGI,RXF 393 renal,51 µM
same,TGI,CCRF-CEM leukemia,80.5 µM
same,TGI,SN12C renal,> 100 µM
same,TGI,OVCAR-3 ovarian,> 100 µM
CN(C)CCNC(=O)c1ccc(Cl)c2c(Nc3ccc(S(=O)(=O)N=C(N)N)cc3)c3ccccc3nc12,TGI,SR leukemia,9.06 µM
same,TGI,UO-31 renal,3.23 µM
same,TGI,OVCAR-4 ovarian,5.24 µM
same,TGI,TK-10 renal,38.7 µM
same,TGI,DLD-1 colon,18.4 µM
same,TGI,SF-539 CNS,14.7 µM
same,TGI,KM12 colon,20.7 µM
same,TGI,SNB-78 CNS,48.1 µM
same,TGI,HL-60(TB) leukemia,6.27 µM
same,TGI,ACHN renal,18 µM
same,TGI,IGROV1 ovarian,18.5 µM
same,TGI,SW-620 colon,14.9 µM
same,TGI,OVCAR-8 ovarian,15.2 µM
same,TGI,HCT-15 colon,18.6 µM
same,TGI,786-0 renal,35 µM
same,TGI,EKVX NSCLC,27.5 µM
same,TGI,DMS 273 small cell lung,8.63 µM
same,TGI,M14 melanoma,53.6 µM
same,TGI,SNB-19 CNS,6.6 µM
same,TGI,U251 CNS,16.4 µM
same,TGI,SK-MEL-2 melanoma,24.5 µM
same,TGI,SK-MEL-5 melanoma,25.5 µM
same,TGI,MOLT-4 leukemia,2.66 µM
same,TGI,SF-268 CNS,19.7 µM
same,TGI,HT29 colon,10.3 µM
same,TGI,DMS 114 small cell lung,7.98 µM
same,TGI,A549 NSCLC,17.2 µM
same,TGI,HCC-2998 colon,21.3 µM
same,TGI,LXFL 529 NSCLC,18.4 µM
same,TGI,LOX IMVI melanoma,5.5 µM
same,TGI,KM20L2 colon,19.2 µM
same,TGI,NCI-H522 lung,3.79 µM
same,TGI,SF-295 CNS,15.2 µM
same,TGI,K-562 leukemia,16.9 µM
same,TGI,HOP-62 NSCLC,26.4 µM
same,TGI,NCI-H226 lung,6.67 µM
same,TGI,HCT-116 colon,17.8 µM
same,TGI,SK-MEL-28 melanoma,26.6 µM
same,TGI,COLO 205 colon,17.9 µM
same,TGI,UACC-62 melanoma,20.3 µM
same,TGI,NCI-H460 lung,10.2 µM
same,TGI,M19-MEL melanoma,17.3 µM
same,TGI,XF 498 CNS,27.1 µM
same,TGI,RXF 393 renal,19.3 µM
same,TGI,CCRF-CEM leukemia,16.9 µM
same,TGI,SN12C renal,16.6 µM
same,TGI,OVCAR-3 ovarian,30.6 µM
CCOC1=CP(=O)(OCC)CC(C)=C1Cl (stereo unspecified),TGI,SR leukemia,> 100 µM
same,TGI,MALME-3M melanoma,> 100 µM
same,TGI,UO-31 renal,> 100 µM
same,TGI,A498 renal,> 100 µM
same,TGI,TK-10 renal,> 100 µM
same,TGI,DLD-1 colon,> 100 µM
same,TGI,SF-539 CNS,> 100 µM
same,TGI,KM12 colon,> 100 µM
same,TGI,SNB-78 CNS,> 100 µM
same,TGI,HL-60(TB) leukemia,> 100 µM
same,TGI,CAKI-1 renal,> 100 µM
same,TGI,ACHN renal,> 100 µM
same,TGI,IGROV1 ovarian,> 100 µM
same,TGI,RPMI-8226 leukemia,> 100 µM
same,TGI,SW-620 colon,> 100 µM
same,TGI,OVCAR-8 ovarian,> 100 µM
same,TGI,786-0 renal,> 100 µM
same,TGI,HOP-92 NSCLC,> 100 µM
same,TGI,EKVX NSCLC,> 100 µM
same,TGI,DMS 273 small cell lung,75.2 µM
same,TGI,M14 melanoma,> 100 µM
same,TGI,SNB-19 CNS,> 100 µM
same,TGI,U251 CNS,> 100 µM
same,TGI,OVCAR-5 ovarian,> 100 µM
same,TGI,UACC-257 melanoma,> 100 µM
same,TGI,SK-MEL-2 melanoma,> 100 µM
same,TGI,SK-OV-3 ovarian,> 100 µM
same,TGI,NCI-H23 lung,> 100 µM
same,TGI,SK-MEL-5 melanoma,> 100 µM
same,TGI,MOLT-4 leukemia,> 100 µM
same,TGI,SF-268 CNS,> 100 µM
same,TGI,HT29 colon,> 100 µM
same,TGI,DMS 114 small cell lung,> 100 µM
same,TGI,A549 NSCLC,> 100 µM
same,TGI,HCC-2998 colon,> 100 µM
same,TGI,LXFL 529 NSCLC,> 100 µM
same,TGI,LOX IMVI melanoma,> 100 µM
same,TGI,SNB-75 CNS,> 100 µM
same,TGI,KM20L2 colon,> 100 µM
same,TGI,NCI-H522 lung,> 100 µM
same,TGI,SF-295 CNS,> 100 µM
same,TGI,K-562 leukemia,> 100 µM
same,TGI,HOP-62 NSCLC,> 100 µM
same,TGI,NCI-H226 lung,> 100 µM
same,TGI,HCT-116 colon,> 100 µM
same,TGI,SK-MEL-28 melanoma,> 100 µM
same,TGI,COLO 205 colon,25.2 µM
same,TGI,UACC-62 melanoma,> 100 µM
same,TGI,NCI-H460 lung,> 100 µM
same,TGI,M19-MEL melanoma,> 100 µM
same,TGI,CCRF-CEM leukemia,> 100 µM
same,TGI,SN12C renal,> 100 µM
same,TGI,OVCAR-3 ovarian,> 100 µM
